Test results reported in patent US12365687B2 (Hoffmann-La Roche Inc., priority 2021, dated 2025).

Experiments:
[1] = molecular target: human GABAA α1β3γ2 receptor (Homo sapiens (Human), UniProt P14867+P18507); assay: Radioligand binding assay for γ2-containing GABAA subtypes, [3H]Flumazenil competition (α1β3γ2); conditions: for γ2/γ1 Selectivity Ratio: Ki α1β3γ2 (nM)/Ki α2β2γ1 (nM); for LogSel: Log[Ki α1β3γ2 (nM)/Ki α2β2γ1 (nM)]
[2] = molecular target: human GABAA α5β2γ1 receptor (Homo sapiens (Human), UniProt P31644+Q8N1C3); assay: Radioligand binding assay for γ1-containing GABAA subtypes, [3H]RO7239181 competition (α5β2γ1)
[3] = molecular target: human GABAA α2β2γ1 receptor (Homo sapiens (Human), UniProt P47869+Q8N1C3); assay: Radioligand binding assay for γ1-containing GABAA subtypes, [3H]RO7239181 competition (α2β2γ1)
[4] = molecular target: α2β2γ1 GABAA receptor subtype (Homo sapiens (Human), UniProt P47869+Q8N1C3); assay: Two-electrode voltage clamp electrophysiology in Xenopus oocytes expressing GABAA receptors (modulation of GABA EC20 current); format: cell-based; conditions: for Efficacy (GABA)%: % modulation of GABA EC20 = 100*(Fold increase-1), α2β2γ1 oocytes, compound at approx. 30-fold Ki; for Fold increase h-GABA-A α2β2γ1 oocyte @ 30-fold Ki: Xenopus oocytes expressing α2β2γ1, compound at approx. 30-fold its Ki α2β2γ1, GABA EC20 current
Outline: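 Two-electrode voltage clamp at −80 mV, room temperature, 3-5 days after mRNA injection into oocytes. GABA applied at EC20 for 1.5 min, twice, with compound during second application; at least 3 oocytes per concentration. Efficacy = extremum of point-by-point current ratio, expressed as 100×(fold increase−1).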

[5] = Ki h-GABAA α2β2γ1, [3H]RO7239181 competition binding, human GABAA α2β2γ1
[6] = Ki h-GABAA α2β2γ1, displacement of [3H]RO7239181, membranes of HEK293F cells expressing human receptors, means of two determinations

| Structure (SMILES) | Ki [1] | γ2/γ1 Selectivity Ratio [1] | LogSel [1] | Ki [2] | Ki [3, 5] | Ki [3, 6] | Efficacy (GABA)% [4] | Fold increase h-GABA-A α2β2γ1 oocyte @ 30-fold Ki [4] |
| --- | --- | --- | --- | --- | --- | --- | --- | --- |
| C[C@@H]1N=C(c2ncccc2F)c2c(ccc(Cl)c2Cl)-n2nc(C(=O)N3CC4(CCOCC4)C3)nc21 [Example 95, 7-oxa-2-azaspiro[3.5]nonan-2-yl-[(4S)-7,8-dichloro-6-(3-fluoro-2-pyridyl)-4-methyl-4H-[1,2,4]triazolo[1,5-a][1,4]benzodiazepin-2-yl]methanone] | 9440 nM | 198.4 | 2.30 | 20.2 nM | 47.6 nM | 47.6 nM | 126% | 2.26 |
| C[C@@H]1N=C(c2c(F)cccc2F)c2c(ccc(Cl)c2Cl)-n2nc(C(=O)N3CC4(CCCCO4)C3)nc21 [Example 96, [(4S)-7,8-dichloro-6-(2,6-difluorophenyl)-4-methyl-4H-[1,2,4]triazolo[1,5-a][1,4]benzodiazepin-2-yl]-(5-oxa-2-azaspiro[3.5]nonan-2-yl)methanone] | 933 nM | 145.4 | 2.16 | 2.65 nM | 6.4 nM | 6.42 nM | 52% | 1.52 |
| C[C@@H]1N=C(c2ncccc2F)c2c(ccc(Cl)c2Cl)-n2nc(C(=O)N3CC4(CCCO4)C3)nc21 [Example 97, [(4S)-7,8-dichloro-6-(3-fluoro-2-pyridyl)-4-methyl-4H-[1,2,4]triazolo[1,5-a][1,4]benzodiazepin-2-yl]-(5-oxa-2-azaspiro[3.4]octan-2-yl)methanone] | 3590 nM | 242.0 | 2.38 | 8.64 nM | 14.8 nM | 14.8 nM | 95% | 1.95 |
| C[C@@H]1N=C(c2ncccc2F)c2c(ccc(Cl)c2Cl)-n2nc(C(=O)N3CC4(CCO4)C3)nc21 [Example 98, [(4S)-7,8-dichloro-6-(3-fluoro-2-pyridyl)-4-methyl-4H-[1,2,4]triazolo[1,5-a][1,4]benzodiazepin-2-yl]-(1-oxa-6-azaspiro[3.3]heptan-6-yl)methanone] | 8110 nM | 99.2 | 2.00 | 29.8 nM | 81.7 nM | 81.8 nM | 158% | 2.58 |
| C[C@@H]1N=C(c2c(F)cccc2F)c2c(ccc(Cl)c2Cl)-n2nc(C(=O)N3CC4(CCOCC4)C3)nc21 [Example 99, [(4S)-7,8-dichloro-6-(2,6-difluorophenyl)-4-methyl-4H-[1,2,4]triazolo[1,5-a][1,4]benzodiazepin-2-yl]-(7-oxa-2-azaspiro[3.5]nonan-2-yl)methanone] | 1550 nM | 348.9 | 2.54 | 3.29 nM | 4.5 nM | 4.45 nM | 52% | 1.52 |
| C[C@@H]1N=C(c2ncccc2F)c2c(ccc(Cl)c2Cl)-n2nc(C(=O)N3CC4(CCOC4)C3)nc21 [Example 100, [(4S)-7,8-dichloro-6-(3-fluoro-2-pyridyl)-4-methyl-4H-[1,2,4]triazolo[1,5-a][1,4]benzodiazepin-2-yl]-(6-oxa-2-azaspiro[3.4]octan-2-yl)methanone] | 9110 nM | 219.5 | 2.34 | 7.53 nM | 41.5 nM | 41.5 nM | 128% | 2.28 |
| C[C@@H]1N=C(c2ncccc2F)c2c(ccc(Cl)c2Cl)-n2nc(C(=O)N3CC4(CCCCO4)C3)nc21 [Example 101, [(4S)-7,8-dichloro-6-(3-fluoro-2-pyridyl)-4-methyl-4H-[1,2,4]triazolo[1,5-a][1,4]benzodiazepin-2-yl]-(5-oxa-2-azaspiro[3.5]nonan-2-yl)methanone] | 8680 nM | 228.3 | 2.36 | 14.4 nM | 38 nM | 38 nM | 97% | 1.97 |
| C[C@@H]1N=C(c2ncccc2F)c2c(ccc(Cl)c2Cl)-n2nc(C(=O)N3CC4(COC4)C3)nc21 [Example 102, [(4S)-7,8-dichloro-6-(3-fluoro-2-pyridyl)-4-methyl-4H-[1,2,4]triazolo[1,5-a][1,4]benzodiazepin-2-yl]-(2-oxa-6-azaspiro[3.3]heptan-6-yl)methanone] | 7250 nM | 140.7 | 2.15 | 6.83 nM | 51.5 nM | 51.5 nM | 143% | 2.43 |
| [2H]C([2H])([2H])OC1CN(C(=O)c2nc3n(n2)-c2ccc(C(F)(F)F)c(Cl)c2C(c2ncccc2F)=N[C@H]3C)C1 [Example 104, [(4S)-7-chloro-6-(3-fluor-2-pyridyl)-4-methyl-8-(trifluoromethyl)-4H-[1,2,4]triazolo[1,5-a][1,4]benzodiazepin-2-yl]-[3-(trideuteriomethoxy)azetidin-1-yl]methanone] | 6300 nM | 168.8 | 2.23 | 6.36 nM | 37.3 nM | 37.3 nM | 117% | 2.17 |
| C[C@@H]1N=C(c2c(F)cccc2F)c2c(ccc(C(F)(F)F)c2Cl)-n2nc(C(=O)NC[C@@H](C)O)nc21 [Example 105, (4S)-7-chloro-6-(2,6-difluorophenyl)-N-[(2R)-2-hydroxypropyl]-4-methyl-8-(trifluoromethyl)-4H-[1,2,4]triazolo[1,5-a][1,4]benzodiazepine-2-carboxamide] | 5130 nM | 368.4 | 2.57 | 5.05 nM | 13.9 nM | 13.9 nM | 98% | 1.98 |
| C[C@@H]1N=C(c2c(F)cccc2F)c2c(ccc(Cl)c2Cl)-n2nc(C(=O)N3CC4(CCCO4)C3)nc21 [Example 108, [(4S)-7,8-dichloro-6-(2,6-difluorophenyl)-4-methyl-4H-[1,2,4]triazolo[1,5-a][1,4]benzodiazepin-2-yl]-(5-oxa-2-azaspiro[3.4]octan-2-yl)methanone] | 688 nM | 175.8 | 2.24 | 2.59 nM | 3.9 nM | 3.92 nM | 46% | 1.46 |
| C[C@@H]1N=C(c2c(F)cccc2F)c2c(ccc(C(F)(F)F)c2Cl)-n2nc(C(=O)NCC#N)nc21 [Example 110, (4S)-7-chlor-N-(cyanomethyl)-6-(2,6-difluorophenyl)-4-methyl-8-(trifluoromethyl)-4H-[1,2,4]triazolo[1,5-a][1,4]benzodiazepine-2-carboxamide] | 2480 nM | 205.1 | 2.31 | 2.64 nM | 12.1 nM | 12.1 nM | 119% | 2.19 |
| Cc1cnc2n1-c1ccc(Cl)c(Cl)c1C(c1c(F)cccc1F)=N[C@H]2C [Example 111, (4S)-7,8-dichloro-6-(2,6-difluorophenyl)-1,4-dimethyl-4H-imidazo[1,2-a][1,4]benzodiazepine] | 235 nM | 45.6 | 1.66 | 1.24 nM | 5.2 nM | 5.16 nM | 35% | 1.35 |
| C[C@@H]1N=C(c2ncccc2F)c2c(ccc(C(F)(F)F)c2Cl)-n2nc(C(=O)N3CC4(COC4)C3)nc21 [Example 112, [(4S)-7-chloro-6-(3-fluoro-2-pyridyl)-4-methyl-8-(trifluoromethyl)-4H-[1,2,4]triazolo[1,5-a][1,4]benzodiazepin-2-yl]-(2-oxa-6-azaspiro[3.3]heptan-6-yl)methanone] | > 30000 nM | 484.1 | 2.68 | 9.85 nM | 62 nM | 62 nM | 136% | 2.36 |
| C[C@@H]1N=C(c2ncccc2F)c2c(ccc(C(F)(F)F)c2Cl)-n2nc(C(=O)N3CC4(CCCO4)C3)nc21 [Example 113, [(4S)-7-chloro-6-(3-fluoro-2-pyridyl)-4-methyl-8-(trifluoromethyl)-4H-[1,2,4]triazolo[1,5-a][1,4]benzodiazepin-2-yl]-(5-oxa-2-azaspiro[3,4]octan-2-yl)methanone] | 11400 nM | 604.3 | 2.78 | 7.04 nM | 18.9 nM | 18.9 nM | 76% | 1.76 |
| Cc1cnc2n1-c1ccc(C(F)(F)F)c(Cl)c1C(c1c(F)cccc1F)=N[C@H]2C [Example 115, (4S)-7-chloro-6-(2,6-difluorophenyl)-1,4-dimethyl-8-(trifluoromethyl)-4H-imidazo[1,2-a][1,4]benzodiazepine] | 827 nM | 67.4 | 1.83 | 2.63 nM | 12.3 nM | 12.3 nM | 49% | 1.49 |
